Results as given in paper PMC7816212 (Nature, 2020).
pEC50: −log10 of the molar value.

Key:
Assay type in all cases: binding
BCL6 [1] = biological target: BCL6 (Homo sapiens, UniProt A5PL18); assay: cryo-EM of the BCL6 filament
BCL6 [2] = biological target: BCL6 (Homo sapiens, UniProt P41182, E41A); assay: competitive TR-FRET, displacement of FITC-BCoR peptide
BCL6 [3] = biological target: BCL6 (Homo sapiens, UniProt P41182); assay: as above

pEC50 (BCL6 [1])	Compound	competitive TR-FRET, displacement of FITC-BCoR peptide (BCL6 [2])	competitive TR-FRET, displacement of FITC-BCoR peptide (BCL6 [3])
7.19	CNC(=O)COc1cc2cc(Nc3nc(N4C[C@H](C)C[C@H](C)C4)ncc3Cl)ccc2n(C)c1=O [BI-3802]	the E41A substitution did not impair drug binding to BCL6 (Extended Data Fig. 4f)	
	CNC(=O)COc1cc2cc(Nc3nc(N4CCC(C(=O)N(C)C)CC4)ncc3Cl)cc(OC)c2n(C)c1=O [BI-3812]		despite comparable affinity of both BI-3802 and BI-3812 to BCL6 (Extended Data Fig. 8h)
